The source made the active and inactive calls. No cut-off for these calls is given here.
What was measured:
[1] = tested on: Mus musculus; test: (§1) Antihyperlipidemic activity in Triton WR-1339 induced hyperlipidemic male Swiss albino mouse model assessed as histopathological change in kidney at 13 mg/kg, po pre-treated with compound for 6 days followed by triton WR-1339 induction and measured after 24 hrs by H&E staining based analysis; assay type: functional, organism-based; settings: time 7.0 day
[2] = tested on: Mus musculus; test: as §1, with “amelioration of islet cell disruption” for “histopathological change in kidney”, “based microscopic” for “based”; assay type: functional, organism-based; settings: time 7.0 day
[3] = tested on: Mus musculus; test: Antihyperglycemic activity against Triton WR-1339 induced hyperlipidemic male Swiss albino mouse model assessed as blood glucose level at 13 mg/kg, po pre-treated with compound for 6 days followed by triton WR-1339 induction and measured after 24 hrs by glucose meter analysis (reference value: 121.6 +/- 7.8); assay type: functional; settings: time 7 day
[4] = tested on: Mus musculus; test: Antihyperlipidemic activity in Triton WR-1339 induced hyperlipidemic male Swiss albino mouse model assessed as change in carotid artery endothelial cells at 13 mg/kg, po pre-treated with compound for 6 days followed by triton WR-1339 induction and measured after 24 hrs by H&E staining based analysis; assay type: functional, organism-based; settings: time 7.0 day
[5] = tested on: HepaRG; test: Cytotoxicity against human HepaRG cells assessed as mortality rate at 250 uM incubated for 30 mins by LDH assay relative to control; assay type: functional; settings: 0.5 h
[6] = tested on: Mus musculus; test: Antihyperlipidemic activity against Triton WR-1339 induced hyperlipidemic male Swiss albino mouse model assessed as total cholesterol level in mouse blood at 13 mg/kg, po pre-treated with compound for 6 days followed by triton WR-1339 induction and measured after 24 hrs (reference value: 426.3 +/- 2 mg/dL); assay type: functional; settings: time 7 day
[7] = tested on: Mus musculus; test: Antihyperlipidemic activity against Triton WR-1339 induced hyperlipidemic male Swiss albino mouse model assessed as HDL level in mouse blood at 13 mg/kg, po pre-treated with compound for 6 days followed by triton WR-1339 induction and measured after 24 hrs (reference value: 97.4 +/- 1.2 mg/dL); assay type: functional; settings: time 7 day
[8] = tested on: Mus musculus; test: Antihyperlipidemic activity against Triton WR-1339 induced hyperlipidemic male Swiss albino mouse model assessed as LDL level in mouse blood at 13 mg/kg, po pre-treated with compound for 6 days followed by triton WR-1339 induction and measured after 24 hrs (reference value: 231.9 +/- 0.7 mg/dL); assay type: functional; settings: time 7 day
[9] = tested on: HepaRG; test: Cytotoxicity against human HepaRG cells assessed as mortality rate at 25 uM incubated for 30 mins by LDH assay relative to control; assay type: functional; settings: 0.5 h
[10] = tested on: Mus musculus; test: Antihyperlipidemic activity against Triton WR-1339 induced hyperlipidemic male Swiss albino mouse model assessed as VLDL level in mouse blood at 13 mg/kg, po pre-treated with compound for 6 days followed by triton WR-1339 induction and measured after 24 hrs (reference value: 97.1 +/- 1 mg/dL); assay type: functional; settings: time 7 day
[11] = tested on: Mus musculus; test: Antihyperlipidemic activity against Triton WR-1339 induced hyperlipidemic male Swiss albino mouse model assessed as TG level in mouse blood at 13 mg/kg, po pre-treated with compound for 6 days followed by triton WR-1339 induction and measured after 24 hrs (reference value: 485.3 +/- 4.8 mg/dL); assay type: functional; settings: time 7 day

SMILES: CC(C)OC(=O)C(C)(C)Oc1ccc(C(=O)c2ccc(Cl)cc2)cc1 [FENOFIBRATE]
- Activity [1]: Active
- Activity [2]: Active
- Activity [3]: 75 mg/dL
- Activity [4]: Active
- Activity [5]: 18%
- Activity [6]: 135.7 mg/dL
- Activity [7]: 58.7 mg/dL
- Activity [8]: 54.4 mg/dL
- Activity [9]: 12%
- Activity [10]: 20.6 mg/dL
- Activity [11]: 103 mg/dL
